Structures can show the parent of a compound that is named as a salt.
Key:
[1] = target: muscarinic cholinergic receptor; test: [3H] Quinuclidinyl Benzilate (3H-QNB) Binding Assay; set-up: species or system rat; details: pH 7.4
[2] = target: muscarinic cholinergic receptor; test: [3H]-Cis-methyldioxolane (3H-CD) Binding Assay (High Affinity); details: rat cerebral cortex, 1.0 nM 3H-CD, 25° C., 120 minutes, pH 7.4
[3] = rat cerebral cortex, 0.25 nM 3H-QNB, 25° C., 120 minutes

SMILES	IC50 [1]	IC50 [2]	IC50 [1, 3]
CC(=O)O[C@@H]1CC(=O)N(CC#CCN2CCCC2)C1 [(R)-4-(Acetyloxy)-1-[4-(1-pyrrolidinyl)-2-butynyl]-2-pyrrolidinone]	46 µM	0.914 µM	–
CC(=O)O[C@@H]1CC(=O)N(CC#CCN(C)C)C1 [(R)-4-(Acetyloxy)-1-[4-(dimethylamino)-2-butynyl]-2-pyrrolidinone]	1780 µM	11.5 µM	–
CC(=O)O[C@@H]1CC(=O)N(CC#CCN2CCCCC2)C1 [(R)-4-(Acetyloxy)-1-[4-(1-piperidinyl)-2-butynyl]-2-pyrrolidinone]	181 µM	8.08 µM	–
CO[C@@H]1CCN(CC#CCN2CCCC2)C1=O [(R)-3-Methoxy-1-[4-(1-pyrrolidinyl)-2-butynyl]-2-pyrrolidinone]	283 µM	1.97 µM	–
CC(=O)N(C)CC#CCN1CCC(O)C1 (racemic) [(Racemic)-N-[4-(3-Hydroxy-1-pyrrolidinyl)-2-butynyl]-N-methyl acetamide]	1190 µM	2.01 µM	–
CC(=O)OC1CCN(CC#CCN(C)C(C)=O)C1 (racemic) [(Racemic)-N-[4-(3-(Acetyloxy)-1-pyrrolidinyl]-2-butynyl]-N-methyl acetamide, (Racemic)-N-[4-[3-(Acetyloxy)-1-pyrrolidinyl]-2-butynyl]-N-methyl acetamide]	1930 µM	5.46 µM	–
CC(=O)O[C@H]1CCN(CC#CCN2CCCCC2)C1=O [(S)-3-(Acetyloxy)-1-[4-(1-piperidinyl)-2-butynyl]-2-pyrrolidinone]	367 µM	1.45 µM	–
CC(=O)O[C@H]1CC(=O)N(CC#CCN2CCCC2)C1 [(S)-4-(Acetyloxy)-1-[4-(1-pyrrolidinyl)-2-butynyl]-2-pyrrolidinone]	112 µM	6.11 µM	–
O=C(O[C@@H]1CCN(CC#CCN2CCCC2)C1=O)c1ccc([N+](=O)[O-])cc1 [(R)-3-[(4-Nitrobenzoyl)oxy]-1-[4-(1-pyrrolidinyl)-2-butynyl]-2-pyrrolidinone]	–	4.29 µM	59 µM
O=C1CCCN1CC#CCN1CCC(O)C1 (racemic) [(Racemic)-1-[4-(3-Hydroxy-1-pyrrolidinyl)-2-butynyl]-2-pyrrolidinone]	395 µM	0.425 µM	–
O=C1C[C@@H](O)CN1CC#CCN1CCCC1 [(R)-4-Hydroxy-1-[4-(1-pyrrolidinyl)-2-butynyl]-2-pyrrolidinone]	52 µM	0.053 µM	–
O=C1C(S)CCN1CC#CCN1CCCCC1 (stereo not drawn) [3-Mercapto-1-[4-(1-piperidinyl)-2-butynyl]-2-pyrrolidinone]	11 µM	0.587 µM	–
O=C1C[C@H](O)CN1CC#CCN1CCCCC1 [(S)-4-Hydroxy-1-[4-(1-piperidinyl)-2-butynyl]-2-pyrrolidinone]	200 µM	36.1 µM	–
CN(C)CC#CCN1C[C@@H](O)CC1=O	1510 µM	10.1 µM	–
COC1CCN(CC#CCN(C)C(C)=O)C1 (racemic) [(Racemic)-N-[4-(3-Methoxy-1-pyrrolidinyl)-2-butynyl]-N-methyl acetamide]	377 µM	1.37 µM	–
CC(=O)O[C@H]1CCN(CC#CCN2CCCC2)C1=O [(S)-3-(Acetyloxy)-1-[4-(1-pyrrolidinyl)-2-butynyl]-2-pyrrolidinone]	122 µM	0.152 µM	–
CC(C)(C)[Si](C)(C)O[C@H]1CCN(CC#CCN2CCCCC2)C1=O [(S)-3-[[(1,1-Dimethylethyl)dimethylsilyl]oxy]-1-[4-(1-piperidinyl)-2-butynyl]-2-pyrrolidinone]	24 µM	0.161 µM	–
COC1CCN(CC#CCN2CCCC2=O)C1 (racemic) [(Racemic)-1-[4-(3-Methoxy-1-pyrrolidinyl)-2-butytnyl]-2-pyrrolidinone, (Racemic)-1-[4-(3-Methoxy-1-pyrrolidinyl)-2-butynyl]-2-pyrrolidinone]	110 µM	1.75 µM	–
O=C1[C@@H](O)CCN1CC#CCN1CCCCC1 [(S)-3-Hydroxy-1-[4-(1-piperidinyl)-2-butynyl]-2-pyrrolidinone]	22 µM	0.476 µM	–
C[N+](C)(C)CC#CCN1CCCC1=O [N,N,N-Trimethyl-4-(2-oxo-1-pyrrolidinyl)-2-butyn-1-aminium iodide, reference compound]	18 µM	0.003 µM	–
CC(=O)S[C@@H]1CCN(CC#CCN2CCCCC2)C1=O [(R)-S-[2-Oxo-1-[4-(1-piperidinyl)-2-butynyl]-3-pyrrolidinyl]] [(R)-S-[2-Oxo-1-[4-(1-piperidinyl)-2-butynyl]-3-pyrrolidinyl]ethanethioic acid ester]	4.3 µM	0.03 µM	–
O=C1C[C@@H](O)CN1CC#CCN1CCCCC1 [(R)-4-Hydroxy-1-[4-(1-piperidinyl)-2-butynyl]-2-pyrrolidinone]	166 µM	3.79 µM	–
CN(C)CC#CCN1CC[C@@H](O)C1=O [(R)-1-[4-(Dimethylamino)-2-butynyl]-3-hydroxy-2-pyrrolidinone]	1470 µM	0.578 µM	–

SMILES	IC50 [1]	IC50 [2]	IC50 [1, 3]
CC(=O)O[C@H]1CCN(CC#CCN2CCCC2=O)C1 [(S)-1-[4-[3-(Acetyloxy)-1-pyrrolidinyl]-2-butynyl]-2-pyrrolidinone]	2320 µM	2.02 µM	–
O=C1[C@@H](O)CCN1CC#CCN1CCCC1 [(S)-3-Hydroxy-1-[4-(1-pyrrolidinyl)-2-butynyl]-2-pyrrolidinone]	11 µM	0.009 µM	–
CC(=O)S[C@H]1CCN(CC#CCN2CCCC2)C1=O [(S)-S-(2-Oxo-1-[4-(1-pyrrolidinyl)-2-butynyl]-3-pyrrolidinyl]ethanethioic acid ester]	4 µM	0.07 µM	–
CC(=O)S[C@@H]1CCN(CC#CCN2CCCCC2)C1=O [(R)-S-[2-Oxo-1-(4-piperidinyl-2-butynyl)-3-pyrrolidinyl]ethanethioic acid ester]	–	0.946 µM	–
CC(=O)S[C@@H]1CCN(CC#CCN2CCCCC2)C1=O [(R)-S-[2-Oxo-1-(4-piperidinyl-2-butynyl)-3-pyrrolidinyl]etha] [(R)-S-[2-Oxo-1-(4-piperidinyl-2-butynyl)-3-pyrrolidinyl]ethanethioic acid ester]	91 µM	–	–
CO[C@H]1CCN(CC#CCN2CCCC2)C1=O [(S)-3-Methoxy-1-[4-(1-pyrrolidinyl)-2-butynyl]-2-pyrrolidinone]	433 µM	1.17 µM	–
O=C1[C@@H](S)CCN1CC#CCN1CCCCC1 [(S)-3-Mercapto-1-[4-(1-piperidinyl)-2-butynyl]-2-pyrrolidinone, monohydrochloride]	2.5 µM	0.955 µM	–
CN(C)CC#CCN1C[C@H](O)CC1=O [(R)-1-[4-(Dimethylamino)-2-butynyl]-4-hydroxy-2-pyrrolidinone]	2350 µM	0.578 µM	–
CN(C)CC#CCN1CC[C@H](O[Si](C)(C)C(C)(C)C)C1=O [(S)-1-[4-(Dimethylamino)-2-butynyl]-3-[[(1,1-dimethylethyl)dimethylsilyl]oxy]-2-pyrrolidinone]	200 µM	19.5 µM	–
O=C1CCCN1CC#CCN1CCCCC1 [1-[4-(1-Piperidinyl)-2-butynyl]-2-pyrrolidinone, reference compound]	2 µM	0.077 µM	–
CN(C)CC#CCN1CCCC1=O [1-[4-(Dimethylamino)-2-butynyl]-2-pyrrolidinone, reference compound]	163 µM	0.044 µM	–
O=C1[C@H](O)CCN1CC#CCN1CCCCC1 [(R)-3-Hydroxy-1-[4-(1-piperidinyl)-2-butynyl]-2-pyrrolidinone]	84 µM	3.46 µM	–
CC(=O)O[C@@H]1CCN(CC#CCN2CCCCC2)C1=O [(R)-3-(Acetyloxy)-1-[4-(1-piperidinyl)-2-butynyl]-2-pyrrolidinone]	419 µM	4.47 µM	–
O=C1[C@H](O)CCN1CC#CCN1CCCC1 [(R)-3-Hydroxy-1-[4-(1-pyrrolidinyl)-2-butynyl]-2-pyrrolidinone]	47 µM	0.134 µM	–
CC(=O)S[C@@H]1CCN(CC#CCN(C)C)C1=O [(R)-S-[1-[4-(Dimethylamino)-2-butynyl]-2-oxo-3-pyrrolidinyl]ethanethioic acid ester]	20 µM	0.062 µM	–
CO[C@@H]1CCN(CC#CCN2CCCCC2)C1=O [(R)-3-Methoxy-1-[4-(1-piperidinyl)-2-butynyl]-2-pyrrolidinone]	459 µM	28.1 µM	–
CC(=O)OC1CCN(CC#CCN2CCCC2=O)C1 (racemic) [(Racemic)-1-[4-[3-(Acetyloxy)-1-pyrrolidinyl]-2-butynyl]-2-pyrrolidinone]	313 µM	1.33 µM	–
CC(=O)S[C@H]1CCN(CC#CCN(C)C)C1=O [(S)-S-[1-[4-(Dimethylamino)-2-butynyl]-2-oxo-3-pyrrolidinyl]ethanethioic acid ester]	40 µM	1.53 µM	–
CC(=O)O[C@H]1CC(=O)N(CC#CCN2CCCCC2)C1 [(S)-4-(Acetyloxy)-1-[4-(1-piperidinyl)-2-butynyl]-2-pyrrolidinone]	159 µM	9.57 µM	–
CNC(=O)O[C@H]1CCN(CC#CCN2CCCCC2)C1=O [(S)-3-[[(Methylamino)carbonyl]oxy]-1-[4-(1-piperidinyl)-2-butynyl]-2-pyrrolidinone]	–	87 µM	744 µM
CC(C)(C)[Si](C)(C)O[C@H]1CC(=O)N(CC#CCN2CCCC2)C1 [(S)-4-[[(1,1-Dimethylethyl)dimethylsilyl]oxy]-1-[4-(1-pyrrolidinyl)-2-butynyl]-2-pyrrolidinone]	23 µM	9.57 µM	–
O=C1[C@H](SS[C@@H]2CCN(CC#CCN3CCCCC3)C2=O)CCN1CC#CCN1CCCCC1 [[R-(R*,R*)]-3,3'-dithiobis[1-[4-(1-piperidinyl)-2-butynyl]]-2-pyrrolidinone]	–	1.83 µM	9 µM
CC(=O)S[C@H]1CCN(CC#CCN2CCCCC2)C1=O [(S)-S-[2-Oxo-1-[4-(1-piperidinyl)-2-butynyl]-3-pyrrolidinyl]ethanethioic acid ester]	14 µM	2.43 µM	–
